From patent publication US9682092B2, “Boron-containing small molecules as anti-inflammatory agents” (ANACOR PHARMACEUTICALS, INC., priority 2006, dated 2017)

Tests used:
PMA-induced ear swelling = assay: Topical, Phorbol Ester Mouse Ear Assay; type: in vivo, CD-1 (Crl.) derived male mice
Method: 5-(4-Cyanophenoxy)-1-hydroxy-2,1-dihydrobenzoxaborole and betamethasone were provided by Anacor Pharmaceuticals, Inc. Betamethasone is used to treat the itching, redness, dryness, crusting, scaling, inflammation, and discomfort of various skin conditions.
Test substances were each applied topically to the right ear of the test animal 30 minutes before and 15 minutes after Phorbol 12-Myristate 13-Acetate (PMA) was applied. The dosing volume was 20 μl/ear for solvent vehicle or 20 mg/ear for cream formulations.
Male CD-1 (Crl.) derived mice weighing 24±2 g were provided by BioLasco Taiwan (under Charles River Laboratories Technology Licensee). Space allocation for 10 animals was 29×18×13 cm. Mice were housed in APEC® cages. All animals were maintained in a controlled temperature (22° C.-23° C.) and humidity (70%-80%) environment with 12 hours light dark cycles for at least one week in MDS Pharma Services—Taiwan Laboratory prior to use. Free access to standard lab chow for mice (Lab Diet, Rodent Diet, PMI Nutrition International, USA) and tap water was granted. All aspects of this work including housing, experimentation and disposal of animals were performed in general accordance with the Guide for the Care and Use of Laboratory Animals (National Academy Press, Washington, D.C., 1996).
Groups of 5 CD-1 (Crl.) derived male mice weighing 24±2 g were used. PMA ([…] in 20 μl of Acetone) was applied topically to the anterior and posterior surfaces of the right ear to each animal. Vehicle (Ethanol:Acetone/1:1, 20 μL/ear or cream, 20 mg/ear) and test substances including 5-(4-cyanophenoxy)-1-hydroxy-2,1-dihydrobenzoxaborole and betamethasone were each applied 30 minutes before and 15 minutes after PMA application. […] Ear swelling was then measured by a Dyer model micrometer gauge at 6 hours after PMA application as an index of inflammation. Percent inhibition was calculated according to the formula: ([Ic−It]/Ic)×100%, where Ic and It refer to increase of ear thickness (mm) in control and treated mice, respectively. […]

| SMILES | melting point [°C] | also measured |
| --- | --- | --- |
| C[C@@H]1C[C@H]2[C@@H]3CCC4=CC(=O)C=C[C@]4(C)[C@@]3(F)[C@@H](O)C[C@]2(C)[C@@]1(O)C(=O)CO [dexamethasone, Dexamethasone, reference compound] | – | decrease in the ear swelling relative to the vehicle (Ethanol:Acetone/1:1)-treated group (PMA-induced ear swelling; 3 mg/ear topical, positive control, 6 hours after PMA): 72% |
| N#Cc1ccc(Oc2ccc3c(c2)COB3O)cc1 [C17, 5-(4-Cyanophenoxy)-1,3-dihydro-1-hydroxy-2,1-benzoxaborole] | – | Percent inhibition of ear swelling induced by topical phorbol ester (PMA-induced ear swelling; 0.2 mg/ear×2 topical, 30 min before and 15 min after PMA, ear swelling measured 6 hours after PMA): 22%; inhibition of the PMA-induced ear swelling (in words) (PMA-induced ear swelling; 1 mg/ear×2, versus vehicle or cream placebo control): significant inhibition |
| CN(C)c1ccc2c(c1)B(O)OC2 [C51, 6-(dimethylamino)benzo[c][1,2]oxaborol-1(3H)-ol] | 120 to 123 | – |
| OB1OCc2ccc(Sc3ccc(F)cc3)cc21 [C44, 6-(4-fluorophenylthio)benzo[c][1,2]oxaborol-1(3H)-ol] | 135 to 138 | – |

Second part, led by results:

| melting point [°C] | SMILES | also measured |
| --- | --- | --- |
| 117 to 120 | CSc1ccc(Sc2ccc3c(c2)B(O)OC3)cc1 [C94, 6-(4-(methylthio)phenylthio)benzo[c][1,2]oxaborol-1(3H)-ol] | – |
| 139 to 144 | Cc1ccc(Sc2ccc3c(c2)B(O)OC3)cc1 [C95, 6-(p-tolylthio)benzo[c][1,2]oxaborol-1(3H)-ol] | – |
| 186 to 193 | O=C(Nc1ccc2c(c1)B(O)OC2)c1ccccc1 [C52, N-(1-hydroxy-1,3-dihydrobenzo[c][1,2]oxaborol-6-yl)benzamide] | – |
